Where a name gives a salt, the structure may show the parent alone. Read-outs that look alike come from different tables or passages of the source.
Key:
Beagle dog = type: in vivo; details: for Clinical observations: Beagle dog, intragastric
Text: Acute Toxicity Test Research for Beagle Dog
Object: Approximate lethal dose method was introduced in the test to observe the acute toxicity response of the animals by intragastric administration of example 2 or Azilsartan medoxomil potassium salt to Beagle dogs to study the toxicity situation of example 2 after administration and compare the toxicity of example 2 and Azilsartan medoxomil potassium salt, which can provide reference confirmation for the evaluation of toxicity of example 2.
Method (approximate lethal dose method): 6 Beagle dogs were used, 3 for each of example 2 group and Azilsartan medoxomil potassium salt group. The administration dosage was 0.09, 0.13, 0.19, 0.28, 0.42, 0.63, 0.95, 1.42, 2.13, 3.20 g·kg^−1 respectively, wherein 3.20 g·kg^−1 was the maximum administration dosage (corresponding to 1081 times the given dosage for the clinical patient). The blood was collected before administration and on days 2, 7, and 14 after administration to test the corresponding biochemical indicators. Electrocardiogram, body weight, and body temperature were determined before administration and on days 7 and 14 after administration.

Hygroscopicity test = type: physicochemical; details: 25° C.±1° C., RH 80%±2%, 24 h
Experimental: 1. A dried glass weighing bottle (Outer diameter […]) with a plug was put into an artificial climate box under the temperature of 25° C.±1° C. and relative humidity (RH) of 80%±2% the day before and then weighed precisely (m1).
2. The testing sample was weighed precisely (m2) and lain into the weighing bottle. The thickness of the test sample was about 1 mm.
3. The uncovered weighing bottle and its plug were placed under the above constant temperature and humidity conditions for 24 h.
4. The weighing bottle was covered and weighed precisely (m3).
Calculation formula: Percent of weight increase=(m3−m2)/(m2−m1)*100%
5. Definition of the weight increase of the hygroscopicity
Deliquescence: absorbing enough water to form liquid.
High hygroscopicity: the weight increase of the hygroscopicity is no less than 15%
Having hygroscopicity: the weight increase of the hygroscopicity is between 15% and 2%
Slight hygroscopicity: the weight increase of the hygroscopicity is between 2% and 0.2%
No or almost no hygroscopicity: the weight increase of the hygroscopicity is less than 0.2%

Solubility test = details: conclusion of the solubility test
Experimental: Moreover, “1:40” refers to 1 g of sample was dissolved in 40 ml of methanol at room temperature, the same as “1:80”; “1:120” refers to 1 g of sample was dissolved in 40 ml of ethanol at room temperature, the same as “1:200”.

[1] = test system: blood pressure of SHR rats; experiment: Antihypertensive effect test for spontaneously hypertensive (SHR) rats; type: in vivo; details: 10 mg/kg
Experimental: Antihypertensive Effect Test For Spontaneously Hypertensive (SHR) Rats
38 of 25 week old SHR male rats were randomly divided into 4 groups according to the initial blood pressure, with 6 for the control group (solvent) and 8 for other groups. 10 mg/kg of example 2 compound (Choline Azilsartan), example 4 compound (Azilsartan ethanolamine salts) and control (Azilsartan medoxomil potassium salt) were continuously administered, respectively. The solvent control group was administered solvent. The administration volume was 5 ml/kg and the period was 2 weeks.

Structure (SMILES): CCOc1nc2cccc(C(=O)OCc3oc(=O)oc3C)c2n1Cc1ccc(-c2ccccc2-c2noc(=O)[nH]2)cc1 [Azilsartan kamedoxomil, Azilsartan medoxomil potassium salt, reference compound]
- Clinical observations (Beagle dog; 1.42 g·kg^−1 dosage group): vomit, less moving; moving reduction on day 2 after administration, moving recovered on day 3 and no abnormality observed after day 3
- Clinical observations (Beagle dog; 2.13 g·kg^−1 dosage group): vomit, drooling, moving reduction; moving reduction on day 2 after administration, moving recovered on day 3 and no abnormality observed after day 3
- Clinical observations (Beagle dog; 3.20 g·kg^−1 dosage group): vomit, drooling, less moving; moving reduction on days 2˜8, prostration on days 5˜8, died on day 9
- Body temperature (Beagle dog; dog, in vivo): no abnormality on day 7 after administration
- Body weight (Beagle dog; dog, in vivo): decreased on day 7 after administration compared with pre-administration
- Electrocardiogram and haematological indicators (Beagle dog; dog, in vivo): not abnormal on day 7 after administration
- PT values (Beagle dog; dog, in vivo): reduced significantly after administration compared to pre-administration
- Systolic blood pressure and diastolic blood pressure (Beagle dog; dog, in vivo): reduced more or less on day 2 after administration

Structure (SMILES): CCOc1nc2cccc(C(=O)[O-])c2n1Cc1ccc(-c2ccccc2-c2noc(=O)[nH]2)cc1.C[N+](C)(C)CCO [Example 1]
- Conclusion (hygroscopic or not) (Hygroscopicity test): Yes
- Hygroscopicity (percent of weight increase) (Hygroscopicity test): 10.51%
- Solubility, comparison between samples (Solubility test): comparable to the solubility of example 2 compound

Structure (SMILES): CCOc1nc2cccc(C(=O)O)c2n1Cc1ccc(-c2ccccc2-c2noc(=O)[nH]2)cc1.NCCO [Example 3]
- Conclusion (hygroscopic or not) (Hygroscopicity test): Yes
- Hygroscopicity (percent of weight increase) (Hygroscopicity test): 5.66%

Structure (SMILES): CCOc1nc2cccc(C(=O)O)c2n1Cc1ccc(-c2ccccc2-c2noc(=O)[nH]2)cc1.CCOc1nc2cccc(C(=O)O)c2n1Cc1ccc(-c2ccccc2-c2noc(=O)[nH]2)cc1.NCCO [Example 4]
- Hygroscopicity (percent of weight increase) (Hygroscopicity test): 0.08%
- Conclusion (hygroscopic or not) (Hygroscopicity test; listed as Example 4 Compound): No
- Conclusion (hygroscopic or not) (Hygroscopicity test; listed as example 4 compound): not hygroscopic
- Antihypertensive effect compared with control (Azilsartan medoxomil potassium salt) ([1]; SHR rats, 2 weeks): superior to the antihypertensive effect of control
- Antihypertensive effect, ranking under the same dosage ([1]; SHR rats, 2 weeks): less effective
- Effect on blood pressure of SHR rats compared with solvent control ([1]; continuously administered for one or two weeks, FIG. 4): reduce the blood pressure of SHR rats significantly
